Active and inactive are the calls of the source.
Columns and labels:
[1] = Luminescence Cell-Based Dose Response to Identify Activators of 5'UTR Stem-Loop Driven Prion Protein mRNA Translation in H4-C Neuroglioblastoma Cells. [Related pubchem assays: 1829 (Project Summary), 1814 (Primary HTS)]; type: functional
[2] = Luminescence Cell-Based Dose Response HTS to Identify Activators of Luciferase Translation or Activity in H4 […] Cells. [Related pubchem assays: 1829 (Project Summary), 1814 (Primary HTS)]; type: functional
[3] = tested on: H4; experiment: Luminescence Cell-Based Dose Response HTS to Identify Activators of 5'UTR Stem-Loop Driven Prion Protein mRNA Translation in H4 Neuroglioblastoma Cells. [Related pubchem assays: 1829 (Project Summary), 1814 (Primary HTS)]; type: functional; settings: Homo sapiens
[4] = Luminescence Cell-Based Dose Response to Identify Activators of Luciferase Translation or Activity in H4-C Neuroglioblastoma Cells. [Related pubchem assays: 1829 (Project Summary), 1814 (Primary HTS)]; type: functional
[5] = target: T1, Estrogen receptor (Homo sapiens, UniProt P03372);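 further: potency for inhibiting coactivator peptide recruitment to the receptor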
T1 sequence (P03372 whole entry): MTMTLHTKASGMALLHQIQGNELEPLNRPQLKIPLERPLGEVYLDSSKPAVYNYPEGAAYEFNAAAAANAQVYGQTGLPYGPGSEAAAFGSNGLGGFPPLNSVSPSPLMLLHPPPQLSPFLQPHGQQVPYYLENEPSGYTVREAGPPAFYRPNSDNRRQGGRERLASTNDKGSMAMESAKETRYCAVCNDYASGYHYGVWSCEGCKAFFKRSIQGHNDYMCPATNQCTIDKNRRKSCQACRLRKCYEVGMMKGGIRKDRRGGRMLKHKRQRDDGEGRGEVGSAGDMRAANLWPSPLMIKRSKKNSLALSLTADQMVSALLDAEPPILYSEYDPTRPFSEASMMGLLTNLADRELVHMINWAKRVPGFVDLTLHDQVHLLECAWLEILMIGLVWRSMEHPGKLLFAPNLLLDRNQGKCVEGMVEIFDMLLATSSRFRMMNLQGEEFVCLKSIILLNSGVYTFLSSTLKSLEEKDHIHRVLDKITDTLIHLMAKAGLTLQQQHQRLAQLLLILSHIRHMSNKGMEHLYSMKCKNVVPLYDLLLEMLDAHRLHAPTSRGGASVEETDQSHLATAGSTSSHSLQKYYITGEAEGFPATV

[6] = Luminescence Cell-Based Dose Confirmation to Identify Activators of 5'UTR Stem-Loop Driven Alpha-Synuclein mRNA Translation in H4 Neuroglioblastoma Cells. [Related pubchem assays: 1829 (Project Summary), 1814 (Primary HTS)]; type: functional
[7] = Luminescence Cell-Based Dose Retest to Confirm Inhibitors of Cancer Stem Cells. [Related pubchem assays (depositor defined):AID2717, AID2721]; type: functional; settings: Homo sapiens
[8] = target: Cytochrome P450 2C19 (Homo sapiens, UniProt P33261); experiment: Cytochrome panel assay with activity outcomes. Panel member name: p450-cyp2c19 Compounds with AC50 equal or less than 10 uM are considered active; type: functional; settings: read-out: AC50
[9] = target: T2, Cytochrome P450 1A2 (Homo sapiens, UniProt P05177);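 further: PubChem cytochrome P450 panel assay, CYP1A2 panel member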
T2 sequence (P05177 whole entry): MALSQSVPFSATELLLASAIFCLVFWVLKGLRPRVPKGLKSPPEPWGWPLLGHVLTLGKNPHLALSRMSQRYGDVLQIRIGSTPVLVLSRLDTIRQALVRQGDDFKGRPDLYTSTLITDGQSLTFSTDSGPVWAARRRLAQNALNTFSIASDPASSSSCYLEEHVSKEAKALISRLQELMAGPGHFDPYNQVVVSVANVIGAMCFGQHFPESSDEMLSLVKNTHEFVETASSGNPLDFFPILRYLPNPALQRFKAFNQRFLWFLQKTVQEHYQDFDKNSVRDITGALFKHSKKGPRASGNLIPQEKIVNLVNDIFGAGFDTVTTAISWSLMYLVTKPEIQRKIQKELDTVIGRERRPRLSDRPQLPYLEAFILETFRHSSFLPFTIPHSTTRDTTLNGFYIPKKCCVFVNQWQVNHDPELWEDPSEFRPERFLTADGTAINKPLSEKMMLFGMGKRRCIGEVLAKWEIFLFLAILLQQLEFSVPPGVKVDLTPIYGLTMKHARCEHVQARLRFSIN

[10] = target: Cytochrome P450 2C9 (Homo sapiens, UniProt P11712)
[11] = target: Voltage-gated inwardly rectifying potassium channel KCNH2 (Homo sapiens, UniProt Q12809); experiment: concentration-dependent hERG rescue from blockers – cell-based, thallium flux, dose response (AID 2121); type: ADME
[12] = target: T3, Replicative DNA helicase DnaB (Mycobacterium tuberculosis, UniProt P9WMR3); experiment: DnaB intein splicing inhibitors, dose response, biochemical, cell-free fluorescence (AID 449749); type: functional
T3 sequence (P9WMR3 whole entry): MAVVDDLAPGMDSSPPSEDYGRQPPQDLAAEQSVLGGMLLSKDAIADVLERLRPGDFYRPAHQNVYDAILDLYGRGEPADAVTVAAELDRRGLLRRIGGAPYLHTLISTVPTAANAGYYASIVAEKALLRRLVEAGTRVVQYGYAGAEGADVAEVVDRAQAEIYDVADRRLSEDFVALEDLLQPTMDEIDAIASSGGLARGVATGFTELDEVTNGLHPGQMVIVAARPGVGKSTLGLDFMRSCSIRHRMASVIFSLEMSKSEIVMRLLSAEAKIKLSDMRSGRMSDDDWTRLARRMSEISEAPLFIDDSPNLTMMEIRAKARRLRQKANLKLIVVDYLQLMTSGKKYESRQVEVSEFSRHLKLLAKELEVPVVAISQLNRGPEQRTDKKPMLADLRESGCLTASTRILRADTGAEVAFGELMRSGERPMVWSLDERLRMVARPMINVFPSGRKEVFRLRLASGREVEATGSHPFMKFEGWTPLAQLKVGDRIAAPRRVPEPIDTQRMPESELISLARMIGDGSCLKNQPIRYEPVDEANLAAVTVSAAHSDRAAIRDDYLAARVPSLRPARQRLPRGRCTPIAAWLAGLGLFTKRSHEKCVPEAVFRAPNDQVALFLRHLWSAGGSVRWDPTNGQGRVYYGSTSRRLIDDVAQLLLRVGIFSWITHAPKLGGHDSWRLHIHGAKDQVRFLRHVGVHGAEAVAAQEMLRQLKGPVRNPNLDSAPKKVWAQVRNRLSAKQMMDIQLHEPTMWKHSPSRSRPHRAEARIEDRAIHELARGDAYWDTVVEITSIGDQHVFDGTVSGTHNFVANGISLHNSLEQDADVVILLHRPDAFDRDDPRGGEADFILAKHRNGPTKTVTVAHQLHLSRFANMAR

[13] = target: T4, Protein RecA (Mycobacterium tuberculosis, UniProt P9WHJ3); experiment: Fluorescence Cell-Free Homogeneous Dose Retest to Identify Inhibitors of RecA-Intein Splicing Activity. [Related pubchem assays (depositor defined):AID2097, AID2223, AID489010, AID492950]; type: functional
T4 sequence (P9WHJ3 whole entry): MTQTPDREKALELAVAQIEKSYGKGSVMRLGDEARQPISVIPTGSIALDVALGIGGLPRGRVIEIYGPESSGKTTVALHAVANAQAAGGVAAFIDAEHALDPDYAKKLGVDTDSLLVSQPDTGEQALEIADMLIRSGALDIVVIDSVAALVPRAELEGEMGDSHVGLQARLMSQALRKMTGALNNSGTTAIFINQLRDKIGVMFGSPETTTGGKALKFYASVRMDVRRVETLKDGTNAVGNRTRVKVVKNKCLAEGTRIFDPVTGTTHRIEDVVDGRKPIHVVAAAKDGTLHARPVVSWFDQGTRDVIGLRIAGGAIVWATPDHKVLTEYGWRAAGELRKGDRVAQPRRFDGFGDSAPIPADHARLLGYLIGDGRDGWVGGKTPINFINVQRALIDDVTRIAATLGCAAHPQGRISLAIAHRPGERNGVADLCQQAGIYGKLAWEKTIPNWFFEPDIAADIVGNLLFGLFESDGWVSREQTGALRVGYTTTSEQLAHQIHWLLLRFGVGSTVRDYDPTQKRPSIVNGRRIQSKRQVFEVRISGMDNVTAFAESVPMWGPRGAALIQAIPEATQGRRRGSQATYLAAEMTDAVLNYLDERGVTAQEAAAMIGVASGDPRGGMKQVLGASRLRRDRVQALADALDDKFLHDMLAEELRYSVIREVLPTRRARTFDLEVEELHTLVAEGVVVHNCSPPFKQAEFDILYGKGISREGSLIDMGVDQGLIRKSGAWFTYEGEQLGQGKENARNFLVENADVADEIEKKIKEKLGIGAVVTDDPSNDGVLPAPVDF

[14] = target: Cytochrome P450 2D6 (Homo sapiens, UniProt P10635);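 further: CYP2D6 member of a cytochrome P450 panel assay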
[15] = tested on: Vero; experiment: mammalian cell viability reduction – secondary assay, cytotoxicity control for West Nile virus antiviral project, dose response (AID 1650); type: functional; settings: Chlorocebus sabaeus
[16] = viability loss in Vero cells – cytotoxicity control for Vif-APOBEC3G degradation inhibitor project, dose response (AID 1117358); type: functional; settings: Vero
[17] = target: Glyceraldehyde-3-phosphate dehydrogenase (Homo sapiens, UniProt P04406)
[18] = target: T5, Bcl-2-related protein A1 (Mus musculus, UniProt Q07440); experiment: small-molecule antagonists of Bfl-1/BH3 interaction – biochemical, TR-FRET, mouse Bfl-1, confirmation (AID 621);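 further: TR-FRET binding of GST-Bfl-1 to FITC-labelled Bid peptide via terbium antibody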
T5 sequence (Q07440 whole entry): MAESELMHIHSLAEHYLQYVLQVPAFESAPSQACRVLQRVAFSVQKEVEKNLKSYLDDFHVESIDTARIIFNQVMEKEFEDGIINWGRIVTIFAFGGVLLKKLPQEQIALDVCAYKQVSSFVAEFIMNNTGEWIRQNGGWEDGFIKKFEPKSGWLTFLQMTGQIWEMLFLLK

[19] = target: T5, Bcl-2-related protein A1; experiment: Bfl-1 binding inhibitors, SAR follow-up, biochemical, fluorescence polarization (AID 1070)
[20] = target: Serine/threonine-protein phosphatase PP1-alpha catalytic subunit (Homo sapiens, UniProt P62136); experiment: inhibition of protein phosphatase 1 activity – biochemical, fluorescence, dose response (AID 2394)
[21] = target: Serine/threonine-protein phosphatase (Homo sapiens, UniProt Q9BPW0); experiment: inhibition of protein phosphatase 5 activity – biochemical, fluorescence, dose response (AID 2395)
[22] = target: Glucose-6-phosphate 1-dehydrogenase (Homo sapiens, UniProt P11413); experiment: inhibition of Homo sapiens G6PD, dose series – biochemical, fluorescence, selectivity assay for P. falciparum G6PD inhibitor project, dose response (AID 504792); type: functional
[23] = target: T6, Apoptotic protease-activating factor 1 (Homo sapiens, UniProt O14727); type: functional
T6 sequence (O14727 whole entry): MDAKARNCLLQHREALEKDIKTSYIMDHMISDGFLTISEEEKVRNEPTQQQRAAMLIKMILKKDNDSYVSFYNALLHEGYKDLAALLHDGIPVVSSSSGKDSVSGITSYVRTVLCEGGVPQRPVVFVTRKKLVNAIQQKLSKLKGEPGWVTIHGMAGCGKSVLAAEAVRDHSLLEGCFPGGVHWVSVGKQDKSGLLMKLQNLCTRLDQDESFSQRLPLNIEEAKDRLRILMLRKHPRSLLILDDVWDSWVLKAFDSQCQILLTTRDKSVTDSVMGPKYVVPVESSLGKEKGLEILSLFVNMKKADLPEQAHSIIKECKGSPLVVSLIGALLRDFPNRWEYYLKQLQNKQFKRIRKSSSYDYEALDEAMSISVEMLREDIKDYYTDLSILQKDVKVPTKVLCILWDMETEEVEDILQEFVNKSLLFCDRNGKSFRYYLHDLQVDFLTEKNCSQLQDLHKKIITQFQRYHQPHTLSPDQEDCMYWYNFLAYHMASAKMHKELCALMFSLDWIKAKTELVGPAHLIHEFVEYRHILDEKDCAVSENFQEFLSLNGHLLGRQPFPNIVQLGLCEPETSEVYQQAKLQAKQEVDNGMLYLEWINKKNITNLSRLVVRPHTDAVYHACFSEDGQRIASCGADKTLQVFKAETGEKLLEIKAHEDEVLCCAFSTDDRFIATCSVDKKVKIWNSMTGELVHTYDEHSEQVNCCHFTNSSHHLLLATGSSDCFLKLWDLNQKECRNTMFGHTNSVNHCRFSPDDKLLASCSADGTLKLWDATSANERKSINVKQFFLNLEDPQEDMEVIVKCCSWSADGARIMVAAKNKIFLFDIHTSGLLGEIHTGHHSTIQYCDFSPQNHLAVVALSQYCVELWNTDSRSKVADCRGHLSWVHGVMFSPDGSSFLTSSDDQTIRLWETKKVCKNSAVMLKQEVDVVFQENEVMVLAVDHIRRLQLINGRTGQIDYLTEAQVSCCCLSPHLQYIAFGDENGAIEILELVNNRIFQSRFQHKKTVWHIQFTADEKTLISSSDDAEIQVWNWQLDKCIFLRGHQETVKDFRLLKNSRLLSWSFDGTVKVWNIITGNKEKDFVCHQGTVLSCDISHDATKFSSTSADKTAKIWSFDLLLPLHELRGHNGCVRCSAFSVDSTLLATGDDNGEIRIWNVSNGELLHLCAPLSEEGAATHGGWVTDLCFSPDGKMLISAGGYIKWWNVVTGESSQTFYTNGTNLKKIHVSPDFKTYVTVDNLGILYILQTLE

[24] = target: Genome polyprotein (dengue virus type 2, UniProt P29990); experiment: flavivirus cap methylation enzyme inhibition – biochemical, confirmation dose response, primary screen (AID 588689); type: functional
Chain of Genome polyprotein (P29990 2492-3391 limits assumed): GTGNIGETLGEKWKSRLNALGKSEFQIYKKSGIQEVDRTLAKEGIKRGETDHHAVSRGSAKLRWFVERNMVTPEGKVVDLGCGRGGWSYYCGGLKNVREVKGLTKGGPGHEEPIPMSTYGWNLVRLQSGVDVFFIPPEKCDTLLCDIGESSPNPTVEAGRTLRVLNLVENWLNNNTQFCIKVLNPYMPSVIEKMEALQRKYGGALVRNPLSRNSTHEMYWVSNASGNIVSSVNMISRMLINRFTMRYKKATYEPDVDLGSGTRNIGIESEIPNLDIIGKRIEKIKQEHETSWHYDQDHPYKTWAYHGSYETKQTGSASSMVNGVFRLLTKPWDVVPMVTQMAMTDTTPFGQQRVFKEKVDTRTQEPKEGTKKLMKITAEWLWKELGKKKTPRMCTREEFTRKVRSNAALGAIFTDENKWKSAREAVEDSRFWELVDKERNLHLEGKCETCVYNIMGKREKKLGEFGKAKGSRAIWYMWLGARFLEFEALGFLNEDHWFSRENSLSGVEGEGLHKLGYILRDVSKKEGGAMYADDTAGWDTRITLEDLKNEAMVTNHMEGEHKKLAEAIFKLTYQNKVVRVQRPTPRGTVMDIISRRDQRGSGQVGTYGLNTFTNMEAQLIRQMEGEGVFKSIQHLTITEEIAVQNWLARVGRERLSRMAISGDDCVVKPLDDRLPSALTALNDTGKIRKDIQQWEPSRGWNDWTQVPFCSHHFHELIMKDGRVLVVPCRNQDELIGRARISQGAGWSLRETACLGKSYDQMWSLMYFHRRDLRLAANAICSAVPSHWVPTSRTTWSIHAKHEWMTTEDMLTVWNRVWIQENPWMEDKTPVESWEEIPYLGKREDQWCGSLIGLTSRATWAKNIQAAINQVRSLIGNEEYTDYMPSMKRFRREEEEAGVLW

Chain of Serine/threonine-protein phosphatase PP1-alpha catalytic subunit (P62136 whole entry): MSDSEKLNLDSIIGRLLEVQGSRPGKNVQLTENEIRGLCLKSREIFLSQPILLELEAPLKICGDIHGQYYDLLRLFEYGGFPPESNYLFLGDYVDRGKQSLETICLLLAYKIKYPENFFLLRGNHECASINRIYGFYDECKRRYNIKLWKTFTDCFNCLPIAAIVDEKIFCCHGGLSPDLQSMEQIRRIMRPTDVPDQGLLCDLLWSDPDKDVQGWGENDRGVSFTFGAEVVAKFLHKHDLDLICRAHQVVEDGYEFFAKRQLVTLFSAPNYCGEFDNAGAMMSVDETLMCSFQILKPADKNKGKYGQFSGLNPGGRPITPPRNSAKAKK
Chain of Glyceraldehyde-3-phosphate dehydrogenase (P04406 whole entry): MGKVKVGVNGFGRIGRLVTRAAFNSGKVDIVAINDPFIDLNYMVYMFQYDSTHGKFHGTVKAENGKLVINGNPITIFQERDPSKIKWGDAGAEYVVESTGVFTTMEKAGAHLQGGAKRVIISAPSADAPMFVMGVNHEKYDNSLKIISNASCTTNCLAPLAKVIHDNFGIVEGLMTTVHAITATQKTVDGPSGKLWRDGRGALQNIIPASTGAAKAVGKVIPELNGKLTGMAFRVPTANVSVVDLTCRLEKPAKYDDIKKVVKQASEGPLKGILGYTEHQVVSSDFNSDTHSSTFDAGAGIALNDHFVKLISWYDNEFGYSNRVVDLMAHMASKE
Chain of Cytochrome P450 2C19 (P33261 whole entry): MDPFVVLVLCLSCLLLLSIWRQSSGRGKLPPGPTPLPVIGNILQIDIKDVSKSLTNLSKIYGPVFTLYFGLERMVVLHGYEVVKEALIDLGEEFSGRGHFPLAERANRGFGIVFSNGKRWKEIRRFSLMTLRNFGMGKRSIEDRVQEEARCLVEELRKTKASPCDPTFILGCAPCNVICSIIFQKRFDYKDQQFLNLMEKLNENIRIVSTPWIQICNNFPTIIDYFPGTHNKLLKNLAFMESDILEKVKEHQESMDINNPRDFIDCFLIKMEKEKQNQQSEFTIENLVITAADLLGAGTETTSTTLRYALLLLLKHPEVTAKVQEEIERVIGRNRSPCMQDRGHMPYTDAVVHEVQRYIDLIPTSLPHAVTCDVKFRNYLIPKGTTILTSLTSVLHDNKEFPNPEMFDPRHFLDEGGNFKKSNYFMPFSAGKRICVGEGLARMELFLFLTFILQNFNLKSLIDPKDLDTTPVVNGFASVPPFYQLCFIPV
Chain of Cytochrome P450 2D6 (P10635 whole entry): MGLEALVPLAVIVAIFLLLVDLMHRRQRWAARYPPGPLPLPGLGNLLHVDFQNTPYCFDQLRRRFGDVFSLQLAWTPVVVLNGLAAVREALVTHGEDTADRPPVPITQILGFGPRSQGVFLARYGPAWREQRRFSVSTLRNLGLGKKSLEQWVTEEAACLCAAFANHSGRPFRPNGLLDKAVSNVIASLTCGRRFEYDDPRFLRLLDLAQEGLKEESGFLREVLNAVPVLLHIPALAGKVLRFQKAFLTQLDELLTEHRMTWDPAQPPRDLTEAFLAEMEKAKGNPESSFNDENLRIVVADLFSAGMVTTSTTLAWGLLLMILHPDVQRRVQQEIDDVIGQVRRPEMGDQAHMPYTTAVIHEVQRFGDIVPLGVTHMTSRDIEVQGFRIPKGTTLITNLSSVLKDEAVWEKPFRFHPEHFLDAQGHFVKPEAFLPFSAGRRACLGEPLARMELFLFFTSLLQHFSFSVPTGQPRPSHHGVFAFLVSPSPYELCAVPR
Chain of Serine/threonine-protein phosphatase (Q9BPW0 whole entry): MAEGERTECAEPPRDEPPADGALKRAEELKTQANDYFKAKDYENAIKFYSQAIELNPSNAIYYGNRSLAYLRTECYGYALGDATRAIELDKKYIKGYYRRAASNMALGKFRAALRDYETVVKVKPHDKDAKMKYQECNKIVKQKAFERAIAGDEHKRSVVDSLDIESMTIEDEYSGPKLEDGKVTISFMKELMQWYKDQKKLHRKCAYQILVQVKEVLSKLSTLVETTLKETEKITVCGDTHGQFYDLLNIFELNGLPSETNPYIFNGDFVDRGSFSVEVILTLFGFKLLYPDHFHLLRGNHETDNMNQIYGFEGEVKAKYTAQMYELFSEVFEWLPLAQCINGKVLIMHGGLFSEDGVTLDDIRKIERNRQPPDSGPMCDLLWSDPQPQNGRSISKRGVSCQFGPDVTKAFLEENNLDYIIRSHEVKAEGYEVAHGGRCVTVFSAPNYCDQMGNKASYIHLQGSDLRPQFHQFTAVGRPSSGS
Chain of Glucose-6-phosphate 1-dehydrogenase (P11413 whole entry): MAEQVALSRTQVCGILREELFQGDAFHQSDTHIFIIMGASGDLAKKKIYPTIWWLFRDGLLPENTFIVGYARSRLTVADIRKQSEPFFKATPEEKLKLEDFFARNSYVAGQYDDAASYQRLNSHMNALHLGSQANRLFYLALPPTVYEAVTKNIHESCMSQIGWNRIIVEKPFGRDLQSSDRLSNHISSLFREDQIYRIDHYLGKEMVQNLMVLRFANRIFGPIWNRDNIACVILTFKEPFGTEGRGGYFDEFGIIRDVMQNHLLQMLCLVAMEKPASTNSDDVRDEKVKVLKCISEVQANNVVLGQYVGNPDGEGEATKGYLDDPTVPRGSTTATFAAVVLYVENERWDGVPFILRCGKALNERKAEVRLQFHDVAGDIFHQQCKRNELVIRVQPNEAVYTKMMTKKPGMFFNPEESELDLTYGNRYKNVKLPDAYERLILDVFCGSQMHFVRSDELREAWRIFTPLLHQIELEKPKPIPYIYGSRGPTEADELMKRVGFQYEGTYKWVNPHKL
Chain of Voltage-gated inwardly rectifying potassium channel KCNH2 (Q12809 whole entry): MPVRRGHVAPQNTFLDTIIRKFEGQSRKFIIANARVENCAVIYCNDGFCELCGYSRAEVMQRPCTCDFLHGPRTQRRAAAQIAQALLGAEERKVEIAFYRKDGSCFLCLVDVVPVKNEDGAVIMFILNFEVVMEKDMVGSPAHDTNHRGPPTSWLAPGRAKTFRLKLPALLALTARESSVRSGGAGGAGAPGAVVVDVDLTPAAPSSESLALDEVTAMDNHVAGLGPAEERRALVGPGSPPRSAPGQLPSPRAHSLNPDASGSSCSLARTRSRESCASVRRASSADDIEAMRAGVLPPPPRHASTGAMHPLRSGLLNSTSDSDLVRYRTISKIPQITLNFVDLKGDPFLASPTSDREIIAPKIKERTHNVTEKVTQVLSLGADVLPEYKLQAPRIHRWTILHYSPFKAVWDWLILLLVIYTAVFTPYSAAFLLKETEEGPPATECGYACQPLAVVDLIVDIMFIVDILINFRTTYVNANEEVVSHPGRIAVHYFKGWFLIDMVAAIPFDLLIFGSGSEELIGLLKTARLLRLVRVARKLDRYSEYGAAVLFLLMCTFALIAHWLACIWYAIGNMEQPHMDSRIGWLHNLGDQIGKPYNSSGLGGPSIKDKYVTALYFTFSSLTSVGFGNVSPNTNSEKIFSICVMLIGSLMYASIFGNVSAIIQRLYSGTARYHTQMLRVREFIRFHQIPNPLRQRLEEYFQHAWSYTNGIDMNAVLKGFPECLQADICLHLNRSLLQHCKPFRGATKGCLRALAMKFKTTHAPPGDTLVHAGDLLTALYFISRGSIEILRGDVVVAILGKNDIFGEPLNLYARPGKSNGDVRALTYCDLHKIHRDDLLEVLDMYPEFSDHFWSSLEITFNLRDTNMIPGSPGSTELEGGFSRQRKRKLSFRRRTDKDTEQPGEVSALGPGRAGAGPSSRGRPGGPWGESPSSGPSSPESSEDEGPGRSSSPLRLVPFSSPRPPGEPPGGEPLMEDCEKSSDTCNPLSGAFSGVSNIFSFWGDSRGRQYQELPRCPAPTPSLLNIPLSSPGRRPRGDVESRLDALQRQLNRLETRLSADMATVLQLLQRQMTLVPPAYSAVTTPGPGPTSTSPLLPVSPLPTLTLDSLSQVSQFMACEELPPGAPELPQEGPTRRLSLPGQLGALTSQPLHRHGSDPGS

In the case of CCCc1cc2c(=O)c(-c3ccc4c(c3)OCCO4)coc2cc1OC(=O)c1ccco1, the EC50 [1] is reported as 0.306 µM (active), the EC50 [2] is reported as < 0.1 µM (active) and the EC50 [3] is reported as > 120 µM (not active). The EC50 [4] was 0.376 µM (active), the IC50 [5] was > 50 µM (not active) and the EC50 [6] was 0.388 µM (active). The AC50 [7] was 3.85 µM (active), the AC50 [8] was 2.51 µM (inconclusive) and the AC50 [9] was 2 µM (inconclusive). The AC50 [10] was “inconclusive”.

For CN1C(=O)/C(=N\OC(=O)c2cccc3ccccc23)c2ccccc21, the EC50 [11] was 1.17 µM (active), the AC50 [12] was 7.38 µM (active) and the EC50 [13] was 15 µM (active). The AC50 [14] was 12.6 µM (inconclusive).

With Cc1cc(C)n(Cc2ccc(NC(=O)c3nn(C)cc3[N+](=O)[O-])cc2)n1 the CC50 [15] was 9.3 µM (active) and the CC50 [16] was 20.8 µM (active).

In the case of O=C1C(Cl)=C(N2CCOCC2)C(=O)N1c1cccc(Cl)c1Cl, the IC50 [17] is reported as > 10 µM (inconclusive), the IC50 [18] is reported as 1.52 µM (active) and the IC50 [19] is reported as 4.05 µM (active).

With COC(=O)CCC(=O)OC1(C)C(=O)C2=CN(C3CC3)C(c3ccc(OC)cc3)=CC2=C(Br)C1=O (centres undefined) the IC50 [20] was 46.2 µM (not active), the IC50 [21] was 8.96 µM (active) and the IC50 [22] was 31.1 µM (inactive). The IC50 [23] was 22 µM (active) and the IC50 [24] was > 100 µM (active).

From ChEMBL document CHEMBL1201862, “PubChem BioAssay data set” (2004)
